Test results as given in US10912756B2, “Method for the treatment of human melanoma” (UNIWERSYTET JAGIELLONSKI, priority 2017, dated 2021).
In brackets after ≈: the same amount, converted by molar mass.

Columns and labels:
[1] = tested on: human fibroblast cells; assay: "crystal violet" proliferation assay; conditions: simvastatin in various concentrations with TCM regimen
[2] = cited from earlier work
[3] = tested on: WM239A human melanoma cells; assay: Taxol take-up into cells, HPLC; type: cell-based
Experimental: (§1) The tests were carried out using cell lines of human melanoma originating from three stages of development: WM35 of the radial growth phase, WM239A metastatic line and A375P metastasis to lungs, malignant line. For every measuring point, cells were grown in 4 100 mm coming dishes for each separate cell line. […] The analyses were repeated thrice in independent experiments, obtaining similar results. The results were averaged and reported in μM per a million of cells. The cells were counted using a Countess Invitrogen™ counter.
(§2) For determination of the amount of drug absorbed by the melanoma cells, chromatographic method was used. An HPLC system (Shimadzu Corporation Japan) consisting of two LC 10AT vp high-pressure pumps, a DGU-14A degasser, a CTO-10 ASvp oven for the column thermostating, an SIL-10 ADvp automatic sample feeder, and an SPD-M10 Avp diode detector, was used for the measurements. CLASS-VP 7.2.1 software was used.
(§3) The samples were separated on a Phenomenex Gemini −Nx 5μ C18 (4.6×150 mm i.d) column+guard column from Phenomenex (4×3 mm i.d.) with identical packing, at a temperature of 20° C. Eluant with the following composition: solvent A (water+0.1% trifluoroacetic acid [TFA]) and solvent B (acetonitrile 0.1% TFA) was used. The sample was separated in the following gradient system: 20% of solvent B to 30% of solvent B linearly for 15 min, next linearly to 34% for 6 min, linearly to 100% of solvent B for 24 min consecutively, then 10 min isocratically at 100% of solvent B. The column was recalibrated for […] in 20% of solvent B. 20-μl samples were introduced at a flowrate of 1.0 ml/min during 65 min with a UV-Vis detection at 220 nm.
(§4) The results were validated in two steps, by comparing the obtained Rt values to Rt values of standards, and by analysis of spectra of the separated compound and their comparison with spectra of the standards.
(§5) A frozen dry pellet was flushed with 650 μl of a solution (2/1 isopropanol, methanol+10% acetonitrile), then sonicated 3×15 s and frozen for 24 h. After thawing, the sample was shaken lightly for 30 min, 200 μl of physiological saline and 1083 μl of chloroform were added, stirring vigorously for 3×4 min. Separation of the organic phase from the aqueous phase was carried out by centrifugation at 10,000 revolutions/10 min. The collected chloroform phase were subjected to concentration under partial vacuum in a concentrator at 4° C., and to second drying under argon atmosphere. The precipitate was dissolved in 100 μl of methanol and separated by HPLC.
(§6) The tests were carried out using methods described in detail in Example 3.

[4] = tested on: A375P human melanoma cells; assay: Taxol take-up into cells, HPLC; type: cell-based
Experimental: as §1, §2, §3, §4, §5, §6

[5] = tested on: WM35 human melanoma cells; assay: Taxol take-up into cells, HPLC; type: cell-based
Experimental: as §1, §2, §3, §4, §5, §6

[6] = tested on: WM239A human melanoma cells; assay: GSH/GSSG glutathione content and cell count (toxicity), RP-HPLC; type: cell-based; conditions: Docetaxel 0.5 μM, statin 20 μM
Experimental: (§7) Toxicities of the applied drugs were tested by a measurement of reduced and oxidised glutathione GSH/GSSG contents in the human melanoma cells. The glutathione contents were analysed by RP-HPLC. A method from prior art [references 1-4] was used.
(§8) The applied method consists in a reaction of GSH and GSSG with N-dinitrofluorobenzene, yielding N,S-dinitro-derivatives in the case of GSH and N,N-dinitro-derivatives in the case of GSSG. The elutions were carried out in a water-acetonitrile system, in accordance to the increasing acetonitrile concentration.
(§9) Determination of the levels of reduced glutathione, oxidised glutathione, and total glutathione were carried out using an RP-HPLC system from Shimadzu (SPD-M10VP photodiode matrix detector, class VP 7.2 software). The separations were carried out at a temperature of 20° C. using a Luna 5u C18 (Z) column (250 mm×4.6 mm, from Phenomenex), with a guard column with the same packing. Grade solvents were used as the eluant in the separations: acetonitrile/0.1% TFA and H2O/0.1% TFA. The separation was obtained in gradient elution, under a non-linear increase in the acetonitrile concentration from 20% to 100% during 90 minutes, at a flow of 1.0 ml/min. Samples with a volume of 20 μl were introduced into the column, filtered earlier using PTFE filters with a pore diameter of 0.2 μm (Supelco). The analysis of the compounds was carried out with UV-VIS detection at 365 nm. The cells were suspended in a 70% PCA/1 mM BPDS/0.9% NaCl solution in a 1:3 ratio, sonicated for 3×5 seconds (Bandelin SonoplusGM70) at a temperature of 4° C. and centrifuged under 1400 g at a temperature of 4° C. for 10 minutes. The prepared supernatant was used for the assays.
(§10) For identification of the tested compounds, proper standard solutions were used: GSH and GSSG.
(§11) All standard solutions were prepared in 10% PCA/1 mM BPDS, in redistilled water.
(§12) To determine the GSH and GSSG levels, calibration curves were used, prepared for standard solutions in the concentration range of 13 to 75 nmol/ml of the corresponding cell homogenate. The incubation mixture contained, respectively: supernatant originating from the cells, N-methyl-L-lysine (internal standard), 10% PCA/1 mM BPDS, 2 M KOH-2.4 M KHCO3 and 1% DNFB.
(§13) In the case of the calibration curve, the incubation mixture was prepared in an analogous way, but various volumes of standard solutions were added, and the final volume was controlled by the amount of the 10% PCA/1 mM BPDS added. After 24 h derivatization at room temperature, in darkness, the samples were acidified by adding 70% PCA and centrifuged for 2 minutes under 5600 g. The obtained supernatant was filtered through a PTFE-Supelco filter, introduced into the column, and 90-minute separation of the analysed compounds was carried out. The chromatograms were worked out identifying the compounds being separated according to their retention times, based on the standards available, and totalising the surface areas of the chromatographic peaks in the ranges of selected retention times.
(§14) Toxicities of the applied drugs were tested by a measurement of GSH/GSSG contents in the human melanoma cells. The glutathione contents were analysed by HPLC. A method drawn from the papers by [Bronowicka, Wróbel, Dominik] was used, described in detail in Example 2.

[7] = tested on: A375P human melanoma cells; assay: as above; type: cell-based; conditions: Docetaxel 0.5 μM, statin 20 μM
Experimental: as §7, §8, §9, §10, §11, §12, §13, §14

[8] = tested on: WM35 human melanoma cells; assay: as above; type: cell-based; conditions: Docetaxel 0.5 μM, statin 20 μM
Experimental: as §7, §8, §9, §10, §11, §12, §13, §14

[9] = tested on: human melanoma cells (WM35, WM239A, A375P); assay: "crystal violet" proliferation assay; type: cell-based; conditions: statin 50-12.5 μM with docetaxel regimen at constant 0.5 μM
Experimental: The tests were carried out using cell lines of human melanoma originating from three stages of development: WM35 of the radial growth phase, WM239A metastatic line and A375P metastasis to lungs, malignant line.
The following statins were used in the studies: atorvastatin, fluvastatin, rosuvastatin, and pravastatin. The tests were carried out using cell lines of human melanoma originating from invasive stages of development: WM239A metastatic line and A375P P-metastasis to lungs, malignant line. […] Methodology according to that described in Example 1 was used. Additionally, the toxicity was analysed by investigations of reduced and oxidised glutathione contents. HPLC method was used.

[10] = tested on: human melanoma cells; assay: Taxol take-up into cells, HPLC (conclusions over the lines); type: cell-based; conditions: for effect on take-up of taxanes into human melanoma cells: statin with docetaxel
[11] = tested on: human melanoma cells; assay: GSH/GSSG toxicity (conclusions over the lines); type: cell-based; conditions: GSH/GSSG contents; statin 20 μM with Docetaxel 0.5 μM
Experimental: as §7, §8
Determination of the levels of reduced glutathione, oxidised glutathione, and total glutathione were carried out using an RP-HPLC system from Shimadzu (SPD-M10VP photodiode matrix detector, class VP 7.2 software). The separations were carried out at a temperature of 20° C. using a Luna 5u C18 (Z) column (250 mm×4.6 mm, from Phenomenex), with a guard column with the same packing. Grade solvents were used as the eluant in the separations: acetonitrile/0.1% TFA and H2O/0.1% TFA. The separation was obtained in gradient elution, under a non-linear increase in the acetonitrile concentration from 20% to 100% during 90 minutes, at a flow of 1.0 ml/min. […]
Toxicities of the applied drugs were tested by a measurement of GSH/GSSG contents in the human melanoma cells. The glutathione contents were analysed by HPLC. […]

[12] = water/n-octanol; cited from earlier work
[13] = tested on: breast cancer; conditions: cited from earlier work
[14] = tested on: lung cancer; conditions: cited from earlier work
[15] = tested on: ovarian cancer; conditions: cited from earlier work
[16] = cell count 34.2 mln, in the presence of various statins
[17] = relative to Docetaxel (T) = 100
[18] = cell count 22.5 mln, in the presence of various statins
[19] = WM 35, cell count 35.4 mln, in the presence of various statins

With `CCC(C)(C)C(=O)O[C@H]1C[C@@H](C)C=C2C=C[C@H](C)[C@H](CC[C@@H]3C[C@@H](O)CC(=O)O3)[C@H]21` [simvastatin] as the molecule, how does the “effect on proliferation of normal cells” value [1] read?
The value was “does not affect the normal cells of human skin such as fibroblasts”.

For `CC(C)n1c(/C=C/C(O)CC(O)CC(=O)O)c(-c2ccc(F)cc2)c2ccccc21` (centres unmarked) [fluvastatin], which solubility in water [2] is on record?
Its solubility in water is 0.46 µg/mL (≈ 1.12 µM).

For `CC(=O)O[C@@]12CO[C@@H]1C[C@H](O)[C@@]1(C)C(=O)[C@H](O)C3=C(C)[C@@H](OC(=O)[C@H](O)[C@@H](NC(=O)OC(C)(C)C)c4ccccc4)C[C@@](O)([C@@H](OC(=O)c4ccccc4)[C@H]21)C3(C)C` [T, Docetaxel], which Taxol concentration [3, 16] is on record?
The Taxol concentration was 74.8 µM.

And the “Taxol concentration per million of cells” value [3, 16]?
Its value is 2.18 μM/million of cells.

And the “% content in cells” value [3, 17]?
The value was 100%.

And the Taxol concentration [4, 18]?
Its Taxol concentration is 36 µM.

What about the “Taxol concentration per million of cells” value [4, 18] of the same molecule?
The value was 1.60 μM/million of cells.

What about the “% content in cells” value [4, 17] of the same molecule?
Its value is 100%.

And the Taxol concentration [5, 19]?
Its Taxol concentration is 57.08 µM.

And the “Taxol concentration per million of cells” value [5, 19]?
The value was 1.61 μM/million of cells.

And the “% content in cells” value ([5]; WM 35, relative to Docetaxel (T) = 100)?
The value was 100%.

And the GSH ([6]; 48 h)?
Its GSH is 1.07 nmol/million of cells.

And the GSH/GSSG ([6]; 48 h)?
The GSH/GSSG was 6.53.

And the GSSG ([6]; 48 h)?
The GSSG was 0.16 nmol/million of cells.

And the Total glutathione ([6]; 48 h)?
Its Total glutathione is 1.40 nmol/million of cells.

And the “Cell count after 48 h” value ([6]; initial count 6.2 mln)?
The value was 10.1 mln.

What about the GSH ([7]; 48 h) of the same molecule?
Its GSH is 0.94 nmol/million of cells.

And the GSH/GSSG ([7]; 48 h)?
The GSH/GSSG was 6.78.

And the GSSG ([7]; 48 h)?
The GSSG was 0.14 nmol/million of cells.

And the Total glutathione ([7]; 48 h)?
The Total glutathione was 1.22 nmol/million of cells.

And the “Cell count after 48 h” value ([7]; initial count 5.9 mln)?
Its value is 11.1 mln.

And the GSH ([8]; 48 h)?
The GSH was 1.12 nmol/million of cells.

What about the GSH/GSSG ([8]; 48 h) of the same molecule?
The GSH/GSSG was 0.59.

And the GSSG ([8]; 48 h)?
The GSSG was 1.88 nmol/million of cells.

What about the Total glutathione ([8]; 48 h) of the same molecule?
Its Total glutathione is 4.8 nmol/million of cells.

And the “Cell count after 48 h” value ([8]; initial count 7.1 mln)?
Its value is 10.1 mln.

What does the source list for `CC(C)c1c(C(=O)Nc2ccccc2)c(-c2ccccc2)c(-c2ccc(F)cc2)n1CC[C@@H](O)C[C@@H](O)CC(=O)O` [atorvastatin]?
increase of Taxol content in melanoma cells, on average ([5]; WM35 (radial phase), in relation to the control with Taxol alone): two hundred percent; effect on proliferation of human melanoma cells [9]: permanently inhibit synergistically; take-ups higher by ([10]; melanoma cells from more advanced progression phases, vs Taxol alone): 30-45%; effect on take-up of taxanes into human melanoma cells [10]: selectively increases the taxanes take-up into human melanoma cells

With `CC[C@H](C)C(=O)O[C@H]1C[C@H](O)C=C2C=C[C@H](C)[C@H](CC[C@@H](O)C[C@@H](O)CC(=O)O)[C@H]21` [pravastatin] as the molecule, how does the “toxicity against human melanoma cells” value [11] read?
Its value is “is not toxic and it does not affect the malignant cells”.

And the “Log P” value [12]?
The value was 0.59.

And the solubility in water [2]?
The solubility in water was 19000 µg/mL (≈ 44800 µM).

For `CC(C)c1nc(N(C)S(C)(=O)=O)nc(-c2ccc(F)cc2)c1/C=C/[C@@H](O)C[C@@H](O)CC(=O)O` [rosuvastatin], which solubility in water [2] is on record?
The solubility in water was 88.6 µg/mL (≈ 184 µM).

What about the “effect on take-up of taxanes into human melanoma cells” value [10] of the same molecule?
The value was “weaker effect”.

For `CC(=O)O[C@H]1C(=O)[C@@]2(C)[C@H]([C@H](OC(=O)c3ccccc3)[C@]3(O)C[C@H](OC(=O)[C@H](O)[C@@H](NC(=O)c4ccccc4)c4ccccc4)C(C)=C1C3(C)C)[C@]1(OC(C)=O)CO[C@@H]1C[C@@H]2O` [Paclitaxel, paclitaxel], which efficiency in treatment [13] is on record?
The efficiency in treatment was 50%.

What about the efficiency in treatment [14] of the same molecule?
The efficiency in treatment was 20%.

What about the efficiency in treatment [15] of the same molecule?
The efficiency in treatment was 30%.
